Like-named read-outs stand apart in the source and are kept apart here.
How the values were obtained:
Pythium aphanidermatum = Pythium aphanidermatum mycelial growth in vitro; format: cell-based; settings: recommended dosage of 0.07% of active ingredient; 24 hr, 25° C.; FIG. 6
P. aphanidermatum = assay: Pythium damping-off disease in cucumber seedlings; format: in vivo, Pythium aphanidermatum; settings: drench at 0.07% of active ingredient, after 10 days, FIG. 7
P. infestans [1] = format: cell-based, Phytophthora infestans; parameters: unit not given beside the values
P. infestans [2] = format: in vivo, Phytophthora infestans; parameters: ED90: unit not given beside the values
P. infestans [3] = format: in vivo, Phytophthora infestans; parameters: unit not given beside the values; settings: TOMATO; Table 2
P. infestans [4] = format: in vivo, Phytophthora infestans; parameters: unit not given beside the values; settings: POTATO; Table 2

With CCO[PH](=O)O [Fosetyl-Al] the “inhibition of radial growth in vitro” value (Pythium aphanidermatum) was 50% and the “plants survived in Pythium-inoculated flats” value (P. aphanidermatum) was 70-80%.
With OP(O)O [H3PO3, Phosphorous Acid] the ED90 (P. infestans [1]) was 45, the “Inhibition (% of control)” value (P. infestans [2]; Tomato, 0.01% active ingredient, Table 4) was 13 % of control and the “Inhibition (% of control)” value (P. infestans [2]; Tomato, 0.02% active ingredient, Table 4) was 13 % of control. For the same compound, the “Inhibition (% of control)” value (P. infestans [2]; Tomato, 0.05% active ingredient, Table 4) was 19 % of control, the “Inhibition (% of control)” value (P. infestans [2]; Tomato, 0.1% active ingredient, Table 4) was 31 % of control and the ED90 (P. infestans [2]; in vivo) was 2.52.
With Potassium Phosphite [K3PO3] the ED90 (P. infestans [1]; tomato leaf discs, Table 1) was 130, the ED90 (P. infestans [3]) was 1.10 and the ED90 (P. infestans [4]) was 0.52. The “Inhibition (% of control)” value (P. infestans [2]; Tomato, 0.12% active ingredient, Table 3) was 50 % of control, the “Inhibition (% of control)” value (P. infestans [2]; Tomato, 0.25% active ingredient, Table 3) was 63 % of control and the “Inhibition (% of control)” value (P. infestans [2]; Tomato, 0.5% active ingredient, Table 3) was 86 % of control. The “Inhibition (% of control)” value (P. infestans [2]; Tomato, 1.0% active ingredient, Table 3) was 98 % of control and the ED90 (P. infestans [2]; Tomato, Table 3) was 0.55.

Source: patent publication US6689392B2, “Methods and compositions for controlling plant pathogen” (Agricare Ltd., priority 2001, dated 2004)
